A short description of this data set: Henry solubility constant Hcp at 298.15 K (mol/(m3 Pa)). The conditions noted are these: reference: Pfeifer et al. (2001).
With `COc1cc(Cl)c(Cl)c(Cl)c1Cl` [1,2,3,4-tetrachloro-5-methoxybenzene], the “Henry solubility constant Hcp” value came out at 0.0065. For `COc1c(Cl)cc(Cl)c(Cl)c1Cl` [1,2,3,5-tetrachloro-4-methoxybenzene], the “Henry solubility constant Hcp” value worked out at 0.0031.

For `COc1ccc(Cl)c(Cl)c1Cl` [1,2,3-trichloro-4-methoxybenzene], the “Henry solubility constant Hcp” value was 0.013. For the compound `COc1cc(Cl)c(Cl)c(Cl)c1` [1,2,3-trichloro-5-methoxybenzene], the “Henry solubility constant Hcp” value was 0.0044. `COc1c(Cl)c(Cl)cc(Cl)c1Cl` [1,2,4,5-tetrachloro-3-methoxybenzene]: the “Henry solubility constant Hcp” value amounted to 0.0032. Consider `COc1c(Cl)ccc(Cl)c1Cl` [1,2,4-trichloro-3-methoxybenzene], for which the “Henry solubility constant Hcp” value is 0.0098. Take `COc1cc(Cl)c(Cl)cc1Cl` [1,2,4-trichloro-5-methoxybenzene]: the “Henry solubility constant Hcp” value stood at 0.011. In the case of `COc1cccc(Cl)c1Cl` [1,2-dichloro-3-methoxybenzene] it was 0.022; in that of `COc1ccc(Cl)c(Cl)c1` [1,2-dichloro-4-methoxybenzene], 0.0092; in that of `COc1c(Br)cc(Br)cc1Br` [1,3,5-tribromo-2-methoxybenzene], 0.013.

On to `COc1c(Cl)cc(Cl)cc1Cl` [1,3,5-trichloro-2-methoxybenzene], for which the “Henry solubility constant Hcp” value was determined as 0.0046. Consider `COc1c(Br)cccc1Br` [1,3-dibromo-2-methoxybenzene], for which the “Henry solubility constant Hcp” value stood at 0.037. Take `COc1c(Cl)cccc1Cl` [1,3-dichloro-2-methoxybenzene]: the “Henry solubility constant Hcp” value worked out at 0.0088. As to `COc1cc(Cl)cc(Cl)c1` [1,3-dichloro-5-methoxybenzene], the “Henry solubility constant Hcp” value came to 0.0023. For `COc1cc(Cl)ccc1Cl` [1,4-dichloro-2-methoxybenzene], the “Henry solubility constant Hcp” value worked out at 0.021.

Take `COc1ccc(Br)cc1Br` [1,5-dibromo-2-methoxybenzene]: the “Henry solubility constant Hcp” value was found to be 0.081. As for `COc1ccc(Cl)cc1Cl` [1,5-dichloro-2-methoxybenzene], the “Henry solubility constant Hcp” value is 0.012. In the case of `COc1ccccc1Br` [1-bromo-2-methoxybenzene], the “Henry solubility constant Hcp” value is 0.029. In the case of `COc1cccc(Br)c1` [1-bromo-3-methoxybenzene] it was 0.0072. As to `COc1ccc(Br)cc1` [1-bromo-4-methoxybenzene], the “Henry solubility constant Hcp” value came to 0.011. For `COc1cccc(Cl)c1` [1-chloro-3-methoxybenzene], the “Henry solubility constant Hcp” value came out at 0.045.

In the case of `COc1c(Br)cc(Br)c(Cl)c1Br` [2,4,6-tribromo-3-chloro-1-methoxybenzene], the “Henry solubility constant Hcp” value is 0.0091. Take `COc1cc(Cl)c(Br)c(Cl)c1Br` [2,4-dibromo-3,5-dichloro-1-methoxybenzene]: the “Henry solubility constant Hcp” value was 0.0091. In the case of `COc1c(Br)cc(Br)c(Cl)c1Cl` [2,4-dibromo-5,6-dichloro-1-methoxybenzene] it was 0.0098; in that of `COc1c(Br)cc(Cl)cc1Br` [2,6-dibromo-4-chloro-1-methoxybenzene], 0.011; in that of `COc1cc(Cl)cc(Cl)c1Br` [2-bromo-3,5-dichloro-1-methoxybenzene], 0.011. The result for `COc1c(Cl)cc(Cl)cc1Br` [2-bromo-4,6-dichloro-1-methoxybenzene] reads 0.012; that for `COc1ccc(Cl)cc1Br` [2-bromo-4-chloro-1-methoxybenzene], 0.018. In the case of `COc1c(Cl)cccc1Br` [2-bromo-6-chloro-1-methoxybenzene] it was 0.014; in that of `COc1c(Cl)cc(Cl)c(Br)c1Cl` [3-bromo-2,4,6-trichloro-1-methoxybenzene], 0.01; in that of `COc1c(Cl)c(Cl)cc(Br)c1Cl` [3-bromo-2,5,6-trichloro-1-methoxybenzene], 0.01. Regarding `COc1c(Cl)c(Cl)c(Br)c(Cl)c1Cl` [4-bromo-2,3,5,6-tetrachloro-1-methoxybenzene], the “Henry solubility constant Hcp” value amounted to 0.0092.

On to `COc1c(Cl)cc(Br)c(Cl)c1Cl` [4-bromo-2,3,6-trichloro-1-methoxybenzene], for which the “Henry solubility constant Hcp” value turned out to be 0.01.

Regarding `COc1ccc(Br)c(Cl)c1Cl` [4-bromo-2,3-dichloro-1-methoxybenzene], the “Henry solubility constant Hcp” value is 0.011.

Take `COc1c(Cl)cc(Br)cc1Cl` [4-bromo-2,6-dichloro-1-methoxybenzene]: the “Henry solubility constant Hcp” value stood at 0.012. For `COc1ccc(Br)cc1Cl` [4-bromo-2-chloro-1-methoxybenzene], the “Henry solubility constant Hcp” value turned out to be 0.013.

As for `COc1cc(Cl)c(Br)c(Cl)c1` [4-bromo-3,5-dichloro-1-methoxybenzene], the “Henry solubility constant Hcp” value is 0.011.

Take `COc1cc(Br)c(Cl)cc1Cl` [5-bromo-2,4-dichloro-1-methoxybenzene]: the “Henry solubility constant Hcp” value came out at 0.011. Take `COc1c(Br)ccc(Cl)c1Cl` [6-bromo-2,3-dichloro-1-methoxybenzene]: the “Henry solubility constant Hcp” value is 0.011. For the compound `COc1c(Br)c(Br)c(Br)c(Br)c1Br` [pentabromomethoxybenzene], the “Henry solubility constant Hcp” value was 1. The result for `COc1c(Cl)c(Cl)c(Cl)c(Cl)c1Cl` [pentachloromethoxybenzene] reads 0.0021.

The values are drawn from Sander's compilation of Henry's law constants (doi:10.1007/s002160101077).
